Here are results for 6 molecules from patent US10245261B2, “Substituted indol-5-ol derivatives and their therapeutic applications” (NantBioScience, Inc., priority 2013, dated 2019).

Like-named read-outs stand apart in the source and are kept apart here.

As a reminder, the inhibition is the change of the read-out against control, counted positive when it falls. By IC50 is commonly meant the midpoint of a concentration-inhibition curve. As usually defined, the GI50 is the concentration at which growth is held to half of that of the control. A low value points to greater sensitivity of the cells.

One experiment has as its target KDR(h) (Homo sapiens, UniProt P35968). As to the kind of experiment: KinaseProfiler kinase assay. It is filed as biochemical.
The target in a further experiment is T1, Aurora-A(h) (Homo sapiens, UniProt O14965).
T1 sequence (O14965 1-403): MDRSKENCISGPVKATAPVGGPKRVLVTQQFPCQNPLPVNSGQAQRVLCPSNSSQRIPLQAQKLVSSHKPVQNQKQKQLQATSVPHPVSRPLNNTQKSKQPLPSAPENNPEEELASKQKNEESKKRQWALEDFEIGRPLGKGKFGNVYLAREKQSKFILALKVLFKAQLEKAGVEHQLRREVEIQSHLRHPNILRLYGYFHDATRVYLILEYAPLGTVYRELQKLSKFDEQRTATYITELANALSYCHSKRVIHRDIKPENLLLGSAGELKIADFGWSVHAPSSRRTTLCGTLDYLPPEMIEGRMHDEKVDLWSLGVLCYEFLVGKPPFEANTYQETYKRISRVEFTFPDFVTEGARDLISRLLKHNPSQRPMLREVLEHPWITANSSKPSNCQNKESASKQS
The experiment is described as follows: KinaseProfiler kinase assay. The following applies: for inhibition at 1 µM: read-out: % Inhibition @1 μM Auroro-A. The class given is biochemical. Summed up: (§1)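 Kinase activity is followed by incorporation of 33P from [γ-33P]ATP in 8 mM MOPS pH 7.0 with 10 mM Mg acetate and 0.2 mM EDTA over 40 min at room temperature. Inhibition is scaled between no-kinase and phosphopeptide control wells.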

The next experiment deals with T2, Flt3(h) (Homo sapiens, UniProt P36888).
T2 sequence (P36888 27-993): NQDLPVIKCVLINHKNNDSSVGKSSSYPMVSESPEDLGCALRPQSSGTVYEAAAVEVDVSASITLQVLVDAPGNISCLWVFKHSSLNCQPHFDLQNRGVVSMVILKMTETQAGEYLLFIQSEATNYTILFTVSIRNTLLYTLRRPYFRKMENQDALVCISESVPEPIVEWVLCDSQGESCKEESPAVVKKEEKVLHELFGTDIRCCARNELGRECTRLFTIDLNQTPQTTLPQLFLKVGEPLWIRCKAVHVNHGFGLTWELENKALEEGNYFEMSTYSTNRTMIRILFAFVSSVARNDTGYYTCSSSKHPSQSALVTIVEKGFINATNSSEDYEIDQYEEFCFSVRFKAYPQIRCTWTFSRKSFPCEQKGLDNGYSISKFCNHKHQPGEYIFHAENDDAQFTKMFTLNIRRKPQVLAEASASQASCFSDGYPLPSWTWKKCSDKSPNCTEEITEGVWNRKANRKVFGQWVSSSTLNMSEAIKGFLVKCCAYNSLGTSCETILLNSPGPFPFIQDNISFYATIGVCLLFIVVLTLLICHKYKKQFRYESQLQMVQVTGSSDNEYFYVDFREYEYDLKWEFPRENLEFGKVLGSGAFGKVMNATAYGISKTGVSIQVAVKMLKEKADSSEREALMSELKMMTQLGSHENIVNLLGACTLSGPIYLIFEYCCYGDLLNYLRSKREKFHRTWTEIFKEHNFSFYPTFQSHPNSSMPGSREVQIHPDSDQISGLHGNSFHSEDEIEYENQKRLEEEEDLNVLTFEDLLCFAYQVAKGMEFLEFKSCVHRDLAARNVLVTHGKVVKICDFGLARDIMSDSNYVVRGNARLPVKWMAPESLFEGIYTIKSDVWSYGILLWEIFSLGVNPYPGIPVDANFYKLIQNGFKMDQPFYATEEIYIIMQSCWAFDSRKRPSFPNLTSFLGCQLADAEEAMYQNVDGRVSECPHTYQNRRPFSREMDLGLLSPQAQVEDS
The experiment is described as follows: KinaseProfiler kinase assay. The class given is biochemical. Summed up:
as §1

The target of a further experiment is cSRC(h) (Homo sapiens, UniProt P12931). As to the kind of experiment: KinaseProfiler kinase assay. It is filed as biochemical. Summed up: as §1
Sequence of cSRC(h) (P12931 whole entry): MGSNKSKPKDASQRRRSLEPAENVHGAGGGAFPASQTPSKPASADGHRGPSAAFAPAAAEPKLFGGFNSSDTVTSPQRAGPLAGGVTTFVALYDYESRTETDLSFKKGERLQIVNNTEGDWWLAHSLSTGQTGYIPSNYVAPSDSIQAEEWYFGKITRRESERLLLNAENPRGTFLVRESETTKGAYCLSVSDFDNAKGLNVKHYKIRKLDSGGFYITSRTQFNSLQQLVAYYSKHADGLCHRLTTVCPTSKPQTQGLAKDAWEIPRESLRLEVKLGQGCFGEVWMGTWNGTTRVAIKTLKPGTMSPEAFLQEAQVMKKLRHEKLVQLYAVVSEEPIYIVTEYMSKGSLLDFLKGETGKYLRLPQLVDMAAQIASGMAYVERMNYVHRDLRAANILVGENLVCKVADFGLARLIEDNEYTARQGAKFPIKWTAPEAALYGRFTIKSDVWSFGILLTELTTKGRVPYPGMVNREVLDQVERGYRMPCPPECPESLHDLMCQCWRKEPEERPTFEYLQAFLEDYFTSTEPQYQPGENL
In the next experiment the target is Ret(h) (Homo sapiens, UniProt P07949). As to the kind of experiment: KinaseProfiler kinase assay. It is filed as biochemical. An outline of the steps:
as §1

Another experiment concerns the target FGFR1(h) (Homo sapiens, UniProt P11362). The experiment is described as follows: KinaseProfiler kinase assay. It is filed as biochemical. Summed up:
as §1

The subject of the next experiment is K562. The experiment is described as follows: CellTiterBlue cell growth inhibition. It is filed as cell-based. The note with it: Homo sapiens; K562, 72 hours. The protocol:
(§2) This example illustrated the proliferating cell growth inhibition of selected compounds from this invention. To do this, the cells were seeded into fresh Iscove's growth medium at a density of 0.4e6 cells/ml and grown in log phase for 24 hr. Cells were then resuspended in their fresh respective growth media at 0.1e^6 cells/ml and plated into 384 well black, clear-bottom microplates at 36 ul/well. Test compounds and controls were initially dissolved in DMSO at the desired concentration, then serially diluted to the assay buffer. These solutions were added and cells were incubated for 72 hours at 37° C. CellTiterBlue (Promega cat# G7572) was added on the Beckman FX. Plates were returned to the 37° C. CO2 incubator for 4 hr and then fluorescence was determined on the Victor plate reader. Data were processed using Microsoft Excel, and GI50 values were generated using Prism (GraphPad Software, San Diego, Calif.).
A general note: The colour change of resazurin is a common sign of viable cells or microbes.

Another experiment has as its system MV4.11. As to the kind of experiment: CellTiterBlue cell growth inhibition. The class given is cell-based. The following applies: Homo sapiens; MV4.11, 72 hours. The protocol: as §2
The target in a further experiment is Abl(h) (Homo sapiens, UniProt P00519). As to the kind of experiment: KinaseProfiler kinase assay. The class given is biochemical.
Sequence of Abl(h) (P00519 whole entry): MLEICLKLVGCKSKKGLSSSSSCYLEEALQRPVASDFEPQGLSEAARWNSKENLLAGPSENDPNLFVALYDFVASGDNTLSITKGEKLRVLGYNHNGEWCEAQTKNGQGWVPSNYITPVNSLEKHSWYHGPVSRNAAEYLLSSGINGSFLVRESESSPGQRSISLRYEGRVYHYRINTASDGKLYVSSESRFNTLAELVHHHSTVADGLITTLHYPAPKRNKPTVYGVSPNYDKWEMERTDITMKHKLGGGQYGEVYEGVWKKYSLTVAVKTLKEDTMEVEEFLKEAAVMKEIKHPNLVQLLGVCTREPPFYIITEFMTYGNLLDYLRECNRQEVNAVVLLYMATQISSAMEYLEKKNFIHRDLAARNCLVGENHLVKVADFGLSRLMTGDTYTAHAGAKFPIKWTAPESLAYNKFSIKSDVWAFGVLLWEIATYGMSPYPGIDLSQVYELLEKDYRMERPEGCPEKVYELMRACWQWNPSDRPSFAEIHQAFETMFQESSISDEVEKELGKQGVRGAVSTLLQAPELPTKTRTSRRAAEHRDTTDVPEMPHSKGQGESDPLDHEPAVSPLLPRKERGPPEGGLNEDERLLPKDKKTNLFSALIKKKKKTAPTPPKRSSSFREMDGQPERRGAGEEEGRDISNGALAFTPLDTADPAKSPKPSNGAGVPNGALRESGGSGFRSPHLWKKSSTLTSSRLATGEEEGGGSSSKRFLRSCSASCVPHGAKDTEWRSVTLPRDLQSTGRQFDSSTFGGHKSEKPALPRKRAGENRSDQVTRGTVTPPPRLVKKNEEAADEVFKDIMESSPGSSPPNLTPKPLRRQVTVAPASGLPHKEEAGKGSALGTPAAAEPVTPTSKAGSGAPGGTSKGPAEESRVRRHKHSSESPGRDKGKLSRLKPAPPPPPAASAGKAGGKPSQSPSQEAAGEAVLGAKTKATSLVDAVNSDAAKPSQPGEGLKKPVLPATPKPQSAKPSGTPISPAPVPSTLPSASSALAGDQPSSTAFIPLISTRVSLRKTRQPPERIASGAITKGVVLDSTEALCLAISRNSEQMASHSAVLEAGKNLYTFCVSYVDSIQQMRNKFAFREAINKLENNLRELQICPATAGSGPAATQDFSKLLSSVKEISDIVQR
Setting [1] is: read-out: IC50 (nM) Auroro-A (h).

Sequence of KDR(h) (P35968 20-1356): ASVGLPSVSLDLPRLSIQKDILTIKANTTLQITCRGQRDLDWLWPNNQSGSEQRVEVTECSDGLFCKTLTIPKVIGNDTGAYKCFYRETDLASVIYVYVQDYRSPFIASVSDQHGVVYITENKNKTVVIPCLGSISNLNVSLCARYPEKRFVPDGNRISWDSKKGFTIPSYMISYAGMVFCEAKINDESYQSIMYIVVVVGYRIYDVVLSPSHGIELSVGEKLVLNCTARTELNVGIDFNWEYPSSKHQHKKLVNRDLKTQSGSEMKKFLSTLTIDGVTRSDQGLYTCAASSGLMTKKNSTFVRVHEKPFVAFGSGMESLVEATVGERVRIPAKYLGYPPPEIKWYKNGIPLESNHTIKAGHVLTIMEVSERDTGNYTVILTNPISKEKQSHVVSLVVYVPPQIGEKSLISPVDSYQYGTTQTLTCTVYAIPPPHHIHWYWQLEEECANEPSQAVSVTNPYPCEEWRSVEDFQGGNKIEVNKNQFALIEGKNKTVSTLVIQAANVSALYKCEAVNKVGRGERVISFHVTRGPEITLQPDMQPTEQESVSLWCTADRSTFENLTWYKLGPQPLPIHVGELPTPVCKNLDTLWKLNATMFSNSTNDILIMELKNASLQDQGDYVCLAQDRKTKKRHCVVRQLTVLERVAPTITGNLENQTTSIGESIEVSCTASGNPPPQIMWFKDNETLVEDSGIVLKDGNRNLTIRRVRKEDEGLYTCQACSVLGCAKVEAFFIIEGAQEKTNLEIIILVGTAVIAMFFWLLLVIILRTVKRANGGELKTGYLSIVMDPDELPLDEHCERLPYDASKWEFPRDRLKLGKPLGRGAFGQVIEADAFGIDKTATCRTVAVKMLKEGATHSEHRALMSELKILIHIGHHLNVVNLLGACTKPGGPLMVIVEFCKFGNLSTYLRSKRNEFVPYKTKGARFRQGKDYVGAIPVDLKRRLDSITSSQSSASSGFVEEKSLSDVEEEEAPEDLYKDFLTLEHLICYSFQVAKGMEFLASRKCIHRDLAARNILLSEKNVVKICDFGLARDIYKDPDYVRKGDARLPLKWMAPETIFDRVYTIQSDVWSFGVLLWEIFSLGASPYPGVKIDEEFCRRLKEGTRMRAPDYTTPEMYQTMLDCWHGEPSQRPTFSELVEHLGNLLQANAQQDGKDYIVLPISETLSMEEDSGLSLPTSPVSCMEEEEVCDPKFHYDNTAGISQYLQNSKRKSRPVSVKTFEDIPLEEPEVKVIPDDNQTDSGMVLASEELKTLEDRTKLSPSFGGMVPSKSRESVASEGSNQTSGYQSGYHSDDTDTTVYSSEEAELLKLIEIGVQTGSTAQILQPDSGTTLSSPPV
Sequence of FGFR1(h) (P11362 22-822): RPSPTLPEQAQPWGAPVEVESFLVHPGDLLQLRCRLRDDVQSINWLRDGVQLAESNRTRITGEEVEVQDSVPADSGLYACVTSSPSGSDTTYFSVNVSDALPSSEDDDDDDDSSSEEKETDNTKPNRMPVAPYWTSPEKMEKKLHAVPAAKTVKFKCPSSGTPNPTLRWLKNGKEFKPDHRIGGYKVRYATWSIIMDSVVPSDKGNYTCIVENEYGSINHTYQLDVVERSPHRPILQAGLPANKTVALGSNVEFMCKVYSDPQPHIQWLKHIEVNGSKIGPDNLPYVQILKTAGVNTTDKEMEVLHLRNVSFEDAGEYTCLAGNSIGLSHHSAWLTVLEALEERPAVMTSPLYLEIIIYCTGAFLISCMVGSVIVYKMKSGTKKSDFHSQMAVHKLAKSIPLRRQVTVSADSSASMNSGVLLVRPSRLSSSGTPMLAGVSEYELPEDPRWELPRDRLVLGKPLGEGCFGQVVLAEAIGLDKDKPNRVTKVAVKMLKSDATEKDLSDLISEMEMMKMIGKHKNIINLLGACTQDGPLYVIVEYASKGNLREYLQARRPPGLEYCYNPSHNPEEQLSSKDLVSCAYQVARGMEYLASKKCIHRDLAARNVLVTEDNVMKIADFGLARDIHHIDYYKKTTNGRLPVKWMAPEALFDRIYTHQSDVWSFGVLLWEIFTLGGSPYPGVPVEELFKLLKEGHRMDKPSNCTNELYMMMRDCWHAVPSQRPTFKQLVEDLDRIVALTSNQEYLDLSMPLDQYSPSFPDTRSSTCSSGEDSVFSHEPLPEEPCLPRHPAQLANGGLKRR
Sequence of Ret(h) (P07949 29-1114): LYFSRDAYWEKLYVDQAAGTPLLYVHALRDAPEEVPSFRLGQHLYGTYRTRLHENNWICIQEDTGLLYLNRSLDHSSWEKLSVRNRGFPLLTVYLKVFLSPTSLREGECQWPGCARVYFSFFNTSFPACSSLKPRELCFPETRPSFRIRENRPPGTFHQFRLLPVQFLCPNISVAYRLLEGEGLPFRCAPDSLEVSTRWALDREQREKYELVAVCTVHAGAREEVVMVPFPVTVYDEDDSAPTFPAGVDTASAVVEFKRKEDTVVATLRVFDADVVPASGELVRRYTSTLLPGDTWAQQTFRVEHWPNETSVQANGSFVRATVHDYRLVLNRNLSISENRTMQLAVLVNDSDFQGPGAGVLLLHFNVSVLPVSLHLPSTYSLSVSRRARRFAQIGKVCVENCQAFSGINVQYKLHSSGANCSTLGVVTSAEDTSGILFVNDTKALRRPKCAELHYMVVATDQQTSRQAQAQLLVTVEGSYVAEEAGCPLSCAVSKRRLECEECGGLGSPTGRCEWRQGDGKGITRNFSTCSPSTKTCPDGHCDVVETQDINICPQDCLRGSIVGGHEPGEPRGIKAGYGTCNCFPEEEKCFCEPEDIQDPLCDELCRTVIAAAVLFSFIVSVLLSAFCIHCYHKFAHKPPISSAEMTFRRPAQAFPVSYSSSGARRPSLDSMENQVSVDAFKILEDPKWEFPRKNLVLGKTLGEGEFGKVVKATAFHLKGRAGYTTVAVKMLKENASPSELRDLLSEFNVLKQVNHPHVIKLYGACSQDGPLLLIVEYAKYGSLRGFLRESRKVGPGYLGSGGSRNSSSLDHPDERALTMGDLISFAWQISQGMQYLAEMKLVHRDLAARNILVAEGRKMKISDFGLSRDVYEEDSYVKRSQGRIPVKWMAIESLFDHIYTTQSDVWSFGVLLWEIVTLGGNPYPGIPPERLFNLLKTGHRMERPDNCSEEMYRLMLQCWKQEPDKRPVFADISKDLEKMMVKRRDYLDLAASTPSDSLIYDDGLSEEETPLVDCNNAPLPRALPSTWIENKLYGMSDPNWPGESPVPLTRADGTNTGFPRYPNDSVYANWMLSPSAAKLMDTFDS

Regarding `Cc1cc2c(F)c(Oc3nc(Nc4cc(C5CC5)[nH]n4)cc(N4CCN(C)CC4)n3)ccc2[nH]1` [Compound 10], the inhibition at 0.1 µM came to 93% against KDR(h); 98% against Aurora-A(h); 101% against Flt3(h); 103% at cSRC(h); 102% at Ret(h); 100% against FGFR1(h). The inhibition at 0.1 µM at Abl(h) came to 110%. Further, the inhibition at 1 µM was 95% at KDR(h); 99% on Aurora-A(h); 100% against Flt3(h); 100% against cSRC(h); 101% at Ret(h); 112% against Abl(h). Further, the IC50 on Aurora-A(h) (setting [1]) was 2 nM; on Flt3(h) (read-out: IC50 (nM) Flt3 (h)) it was 11 nM; at cSRC(h) (read-out: IC50 (nM) cSrc (h)), 3 nM; on FGFR1(h) (read-out: IC50 (nM) FGFR1 (h)), 1 nM; at Abl(h) (read-out: IC50 (nM) Abl (h)), 0.5 nM. Further, the GI50 with K562 and in the experiment on MV4.11 was 0.19 nM throughout.

With `Cc1cc2c(F)c(Oc3nc(Nc4cc(C5CC5)[nH]n4)cc(N4CCNCC4)n3)ccc2[nH]1` [Compound 11, N-(5-cyclopropyl-1H-pyrazol-3-yl)-2-((4-fluoro-2-methyl-1H-indol-5-yl)oxy)-6-(piperazin-1-yl)pyrimidin-4-amine], the inhibition at 0.1 µM against KDR(h) worked out at 92%; against Aurora-A(h), 99%; against Flt3(h), 98%; on cSRC(h) it was 98%; against Ret(h) it was 100%; on FGFR1(h), 100%. The inhibition at 0.1 µM against Abl(h) was 108%. The inhibition at 1 µM was found to be 96% on KDR(h); 100% on Aurora-A(h); 100% at Flt3(h); 101% against cSRC(h); 101% at Ret(h); 111% against Abl(h). In addition, the half-inhibitory concentration (IC50) on KDR(h) (read-out: IC50 (nM) KDR (h)) was 12 nM; at Aurora-A(h) (setting [1]), < 0.1 nM; at Flt3(h) (read-out: IC50 (nM) Flt3 (h)), 12 nM; on cSRC(h) (read-out: IC50 (nM) cSrc (h)), 3 nM; on FGFR1(h) (read-out: IC50 (nM) FGFR1 (h)) it was 0.5 nM; on Abl(h) (read-out: IC50 (nM) Abl (h)) it was 0.5 nM. Also, the results for the GI50 with K562 and in the experiment with MV4.11 were 0.41 nM and 0.29 nM, respectively.

Turning to `C/C=C/c1cc(Nc2cc(N3CCN(C)CC3)nc(Oc3ccc4[nH]c(C)cc4c3F)n2)n[nH]1` [Compound 53], the inhibition at 1 µM on KDR(h) was determined as 95%; on Aurora-A(h), 97%; on Flt3(h) it was 99%; against cSRC(h), 98%; on Ret(h) it was 98%; at Abl(h), 109%. Besides, the concentration for half-maximal inhibition (IC50) on KDR(h) (VEGFR2, read-out: IC50) was 16 nM; on Aurora-A(h) (Aurora-A, read-out: IC50), 4 nM; at Flt3(h) (Flt3, read-out: IC50), 13 nM; on cSRC(h) (cSrc, read-out: IC50), 2 nM; on Ret(h) (Ret, read-out: IC50), 2 nM; at FGFR1(h) (FGFR1, read-out: IC50), 0.5 nM. In addition, on Abl(h) (Abl, read-out: IC50), the 50% inhibitory concentration (IC50) is 0.6 nM. The concentration for 50% growth inhibition (GI50) in the experiment with K562 came to 0.69 nM; with MV4.11, 0.15 nM.

For the molecule `C/C=C/c1cc(Nc2cc(N3CCNCC3)nc(Oc3ccc4[nH]c(C)cc4c3F)n2)n[nH]1` [Compound 68], the inhibition at 1 µM against KDR(h) is 92%; at Aurora-A(h), 99%; against Flt3(h) it was 100%; against cSRC(h) it was 96%; against Ret(h) it was 99%; against Abl(h), 107%. For the same molecule, the IC50 is 12 nM on KDR(h) (read-out: IC50 (nM) KDR (h)); 10 nM at Aurora-A(h) (setting [1]); 4 nM on Flt3(h) (read-out: IC50 (nM) Flt3 (h)); 2 nM at cSRC(h) (read-out: IC50 (nM) cSrc (h)); 0.6 nM at FGFR1(h) (read-out: IC50 (nM) FGFR1 (h)); 0.3 nM on Abl(h) (read-out: IC50 (nM) Abl (h)). Also, the 50% growth inhibitory concentration (GI50) in the experiment on K562 stood at 0.26 nM; in the experiment with MV4.11, 0.16 nM.

As to `Cc1cc2c(F)c(Oc3nc(Nc4cc(C5CC5)[nH]n4)cc(N4CCNCC4)n3)cc(F)c2[nH]1` [Compound 82], the inhibition at 1 µM against KDR(h) was determined as 95%; on Aurora-A(h), 100%; against Flt3(h), 100%; on cSRC(h), 100%; against Ret(h), 100%; at Abl(h), 106%. The IC50 at KDR(h) (read-out: IC50 (nM) KDR (h)) was 11 nM; at Aurora-A(h) (setting [1]) it was 4 nM; on Flt3(h) (read-out: IC50 (nM) Flt3 (h)) it was 6 nM; on cSRC(h) (read-out: IC50 (nM) cSrc (h)) it was 2 nM; on Ret(h) (read-out: IC50 (nM) Ret (h)), 1 nM; at FGFR1(h) (read-out: IC50 (nM) FGFR1 (h)), 0.6 nM. Moreover, the IC50 on Abl(h) (read-out: IC50 (nM) Abl (h)) is 0.2 nM. The figures for the GI50 with K562 and in the experiment on MV4.11 were 0.31 nM and 0.28 nM, respectively.

As for `C/C=C/c1cc(Nc2cc(N3CCN(CCO)CC3)nc(Oc3cc(F)c4[nH]c(C)cc4c3F)n2)n[nH]1` [Compound 88], the inhibition at 1 µM was found to be 96% on KDR(h); 100% at Aurora-A(h); 100% against Flt3(h); 100% against cSRC(h); 99% at Ret(h); 113% against Abl(h). In addition, the half-maximal inhibitory concentration (IC50) came to 44 nM at KDR(h) (read-out: IC50 (nM) KDR (h)); 8 nM at Flt3(h) (read-out: IC50 (nM) Flt3 (h)); 4 nM on cSRC(h) (read-out: IC50 (nM) cSrc (h)); 0.2 nM at FGFR1(h) (read-out: IC50 (nM) FGFR1 (h)); 1 nM on Abl(h) (read-out: IC50 (nM) Abl (h)). In addition, the GI50 with K562 worked out at 0.6 nM; in the experiment on MV4.11, 0.16 nM.
